Laboratory results taken from ChEMBL document CHEMBL4419163, “Assays for identifying compounds that modulate bitter taste” (2014).
pEC50: −log10 of the molar value.

Legend:
Type in all cases: functional, cell-based
[1] = biological target: T1, Taste receptor type 2 member 8 (Homo sapiens) (UniProt Q9NYW2); assay: Agonist activity at human TAS2R8 expressed in HEK293T cells co-expressing Galpha15 assessed as increase in intracellular calcium level at 20 mM by Calcium-3 dye based fluorescence assay relative to control
T1 sequence (whole entry): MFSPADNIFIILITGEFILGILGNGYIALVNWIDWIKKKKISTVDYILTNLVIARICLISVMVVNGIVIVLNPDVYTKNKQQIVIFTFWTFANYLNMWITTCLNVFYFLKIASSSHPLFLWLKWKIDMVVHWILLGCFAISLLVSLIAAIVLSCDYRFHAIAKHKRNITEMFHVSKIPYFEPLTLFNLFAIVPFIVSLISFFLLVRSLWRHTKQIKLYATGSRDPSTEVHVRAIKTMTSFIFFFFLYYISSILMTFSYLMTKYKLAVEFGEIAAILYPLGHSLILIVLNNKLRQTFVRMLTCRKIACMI

[2] = biological target: T2, Taste receptor type 2 member 5 (Homo sapiens) (UniProt Q9NYW4); assay: Agonist activity at human TAS2R5 expressed in HEK293T cells co-expressing Galpha15 assessed as increase in intracellular calcium level at 20 mM by Calcium-3 dye based fluorescence assay relative to control
T2 sequence (whole entry): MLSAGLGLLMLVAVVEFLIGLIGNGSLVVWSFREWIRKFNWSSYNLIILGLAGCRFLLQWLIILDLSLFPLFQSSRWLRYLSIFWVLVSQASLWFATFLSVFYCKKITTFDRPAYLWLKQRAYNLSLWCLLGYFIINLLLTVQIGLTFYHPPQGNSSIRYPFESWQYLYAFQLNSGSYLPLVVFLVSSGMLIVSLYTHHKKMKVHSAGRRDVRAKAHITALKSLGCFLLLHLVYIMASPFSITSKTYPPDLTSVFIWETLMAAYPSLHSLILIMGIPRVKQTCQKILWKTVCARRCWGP

[3] = biological target: T3, Taste receptor type 2 member 7 (Homo sapiens) (UniProt Q9NYW3); assay: Agonist activity at human TAS2R7 expressed in HEK293T cells co-expressing Galpha15 assessed as increase in intracellular calcium level at 20 mM by Calcium-3 dye based fluorescence assay relative to control
T3 sequence (whole entry): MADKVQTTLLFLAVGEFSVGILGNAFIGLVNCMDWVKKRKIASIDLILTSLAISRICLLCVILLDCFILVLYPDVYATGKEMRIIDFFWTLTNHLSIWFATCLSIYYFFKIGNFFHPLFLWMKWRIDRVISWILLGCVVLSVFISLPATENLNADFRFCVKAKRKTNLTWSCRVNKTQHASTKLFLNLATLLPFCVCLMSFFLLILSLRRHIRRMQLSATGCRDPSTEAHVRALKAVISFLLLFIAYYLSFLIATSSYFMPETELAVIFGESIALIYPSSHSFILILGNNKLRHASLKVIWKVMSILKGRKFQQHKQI

[4] = biological target: Taste receptor type 2 member 9 (Homo sapiens, UniProt Q9NYW1); assay: Agonist activity at human TAS2R9 expressed in HEK293T cells co-expressing Galpha15 assessed as increase in intracellular calcium level by Calcium-3 dye based fluorescence assay
[5] = biological target: Taste receptor type 2 member 4 (Homo sapiens, UniProt Q9NYW5); assay: Agonist activity at human TAS2R4 expressed in HEK293T cells co-expressing Galpha15 assessed as increase in intracellular calcium level by Calcium-3 dye based fluorescence assay
[6] = biological target: Taste receptor type 2 member 60 (Homo sapiens, UniProt P59551); assay: Agonist activity at human TAS2R60 expressed in HEK293T cells co-expressing Galpha15 assessed as increase in intracellular calcium level by Calcium-3 dye based fluorescence assay
[7] = biological target: Taste receptor type 2 member 14 (Homo sapiens, UniProt Q9NYV8); assay: Agonist activity at human TAS2R14 expressed in HEK293T cells co-expressing Galpha15 assessed as increase in intracellular calcium level by Calcium-3 dye based fluorescence assay
[8] = biological target: Taste receptor type 2 member 13 (Homo sapiens, UniProt Q9NYV9); assay: Agonist activity at human TAS2R13 expressed in HEK293T cells co-expressing Galpha15 assessed as increase in intracellular calcium level by Calcium-3 dye based fluorescence assay
[9] = biological target: Taste receptor type 2 member 31 (Homo sapiens, UniProt P59538); assay: Agonist activity at human TAS2R44 expressed in HEK293T cells co-expressing Galpha15 assessed as increase in intracellular calcium level by Calcium-3 dye based fluorescence assay
Chain of Taste receptor type 2 member 31 (P59538 whole entry): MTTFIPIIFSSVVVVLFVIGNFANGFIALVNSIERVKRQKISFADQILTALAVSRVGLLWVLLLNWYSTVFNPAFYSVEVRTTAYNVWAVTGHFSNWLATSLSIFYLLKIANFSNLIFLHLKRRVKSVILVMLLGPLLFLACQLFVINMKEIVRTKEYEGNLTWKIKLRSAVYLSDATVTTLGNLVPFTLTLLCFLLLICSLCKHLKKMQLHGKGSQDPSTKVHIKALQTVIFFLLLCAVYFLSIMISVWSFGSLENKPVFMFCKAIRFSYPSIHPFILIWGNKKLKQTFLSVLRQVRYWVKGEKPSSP

Chain of Taste receptor type 2 member 60 (P59551 whole entry): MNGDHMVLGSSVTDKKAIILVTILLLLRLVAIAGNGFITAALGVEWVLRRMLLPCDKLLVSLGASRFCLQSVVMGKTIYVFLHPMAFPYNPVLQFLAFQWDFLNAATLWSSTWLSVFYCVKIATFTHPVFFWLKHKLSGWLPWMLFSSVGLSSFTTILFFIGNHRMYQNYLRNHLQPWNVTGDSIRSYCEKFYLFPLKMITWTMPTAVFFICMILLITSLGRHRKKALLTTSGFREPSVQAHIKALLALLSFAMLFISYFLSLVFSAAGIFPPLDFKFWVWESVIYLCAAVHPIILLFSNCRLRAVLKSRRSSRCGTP
Chain of Taste receptor type 2 member 14 (Q9NYV8 whole entry): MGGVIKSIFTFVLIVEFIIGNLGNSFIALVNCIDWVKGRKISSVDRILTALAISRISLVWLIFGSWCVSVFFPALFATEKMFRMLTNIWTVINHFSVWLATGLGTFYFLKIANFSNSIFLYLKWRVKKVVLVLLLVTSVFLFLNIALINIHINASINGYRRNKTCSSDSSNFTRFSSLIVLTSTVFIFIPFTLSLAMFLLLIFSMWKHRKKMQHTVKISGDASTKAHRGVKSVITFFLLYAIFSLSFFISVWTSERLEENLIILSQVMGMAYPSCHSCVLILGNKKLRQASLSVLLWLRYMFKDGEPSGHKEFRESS
Chain of Taste receptor type 2 member 13 (Q9NYV9 whole entry): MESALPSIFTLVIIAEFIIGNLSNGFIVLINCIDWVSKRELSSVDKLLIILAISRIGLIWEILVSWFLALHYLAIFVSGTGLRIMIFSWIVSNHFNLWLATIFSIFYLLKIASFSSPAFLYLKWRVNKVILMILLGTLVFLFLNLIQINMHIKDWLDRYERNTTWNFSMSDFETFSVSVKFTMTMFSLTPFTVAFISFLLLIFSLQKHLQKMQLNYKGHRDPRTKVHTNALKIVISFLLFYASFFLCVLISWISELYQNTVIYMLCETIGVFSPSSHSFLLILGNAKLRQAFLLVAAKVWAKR
Chain of Taste receptor type 2 member 9 (Q9NYW1 whole entry): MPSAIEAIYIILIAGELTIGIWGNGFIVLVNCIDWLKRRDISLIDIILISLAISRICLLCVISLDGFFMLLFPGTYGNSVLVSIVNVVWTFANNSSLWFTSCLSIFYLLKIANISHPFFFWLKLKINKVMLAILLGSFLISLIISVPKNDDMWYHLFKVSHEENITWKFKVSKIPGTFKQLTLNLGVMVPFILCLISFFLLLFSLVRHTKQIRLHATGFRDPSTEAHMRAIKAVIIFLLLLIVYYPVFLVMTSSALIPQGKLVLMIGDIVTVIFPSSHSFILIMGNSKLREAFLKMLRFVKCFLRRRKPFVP
Chain of Taste receptor type 2 member 4 (Q9NYW5 whole entry): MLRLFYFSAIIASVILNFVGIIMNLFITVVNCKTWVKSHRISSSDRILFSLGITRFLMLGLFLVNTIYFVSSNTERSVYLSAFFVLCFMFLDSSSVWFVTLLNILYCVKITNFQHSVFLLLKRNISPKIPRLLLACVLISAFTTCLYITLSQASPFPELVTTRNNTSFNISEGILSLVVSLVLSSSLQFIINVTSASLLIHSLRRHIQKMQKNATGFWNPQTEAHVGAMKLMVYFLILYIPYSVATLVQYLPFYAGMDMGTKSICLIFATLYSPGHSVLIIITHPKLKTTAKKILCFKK

Row | SMILES | Activity [1] [%] | Activity [2] [%] | Activity [3] [%] | pEC50 [4] | pEC50 [5] | pEC50 [6] | pEC50 [7] | pEC50 [8] | pEC50 [9]
1 | CC1=CC(=O)NS(=O)(=O)O1 | < 40 | < 40 | < 40 | – | – | – | – | – | –
2 | [Cl-].[K+] [POTASSIUM CHLORIDE] | < 40 | < 40 | < 40 | 1.82 to 2.30 | 1.82 to 2.30 | 1.82 to 2.30 | 1.82 to 2.30 | 1.82 to 2.30 | 1.82 to 2.30
3 | CC(O)C(=O)[O-].[K+] (stereo not given) | < 40 | < 40 | < 40 | – | – | – | – | – | –
